The assay addresses IL-2Rαβ (Homo sapiens, UniProt P01589+P14784). The following applies: relative to IL-2 as standard. An excerpt:
The term “CD-122-biased cytokine agonist”, as used herein, refers to an agonist that has a greater affinity for binding to IL-2Rβ than to IL-2Rαβ.

IL-2Rαβ, sequence (P01589 22-240 limits assumed): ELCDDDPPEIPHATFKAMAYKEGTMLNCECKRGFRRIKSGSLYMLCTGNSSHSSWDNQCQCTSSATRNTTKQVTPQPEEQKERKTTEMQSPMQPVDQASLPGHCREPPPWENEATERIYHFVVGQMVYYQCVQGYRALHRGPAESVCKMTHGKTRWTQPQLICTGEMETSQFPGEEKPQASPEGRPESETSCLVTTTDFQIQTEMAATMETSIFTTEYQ
IL-2Rαβ, sequence (P14784 27-240 limits assumed): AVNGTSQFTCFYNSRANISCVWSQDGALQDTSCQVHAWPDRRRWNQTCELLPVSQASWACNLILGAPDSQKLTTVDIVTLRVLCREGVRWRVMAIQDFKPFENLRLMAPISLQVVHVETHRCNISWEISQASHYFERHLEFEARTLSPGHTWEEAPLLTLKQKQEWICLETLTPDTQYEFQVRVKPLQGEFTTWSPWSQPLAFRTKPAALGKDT

With “(2,7-(bis-methoxyPEG10kD-carboxyamide)(9H-fluorene-9-yl)methyl N-carbamate)6avginterleukin-2 [bempegaldesleukin]”, the “decrease in affinity to IL-2Rαβ relative to IL-2” value is roughly 60 fold.
